This note sets out measurements from PMC10827914 (Cellular and Molecular Life Sciences: CMLS, 2024).

Structures can show the parent of a compound that is named as a salt.

For assay [1], the system named is recombinant human aminopeptidase B (APB). Kind of assay: Enzyme activity assay of recombinant APB. The class given is biochemical. As to conditions: APB 0.2 µg/mL, 60 mM Tris–HCl pH 7.4, 100 mM KCl, 0.1 mM L-arginine-7-amido-4-methylcoumarin, 30 min, 37 °C. How it is done: The effect of peptides on the enzymatic activity of APA and APB was evaluated using the method described previously with some modifications. Briefly, threefold serial dilution of peptides (ranging from 0 to 10 or 100 µM) were incubated with either APA (0.2 µg/mL in 60 mM Tris–HCl pH 7.4, 50 mM CaCl2, 200 mM NaCl) or APB (0.2 µg/mL in 60 mM Tris–HCl pH 7.4, 100 mM KCl) and relative substrates at 0.1 mM (L-glutamic acid γ-(7-amido-4-methylcoumarin) or L-arginine-7-amido-4-methylcoumarin, respectively) in 96-well bottom clear black polystyrene microtiter plates (100 µl/well). The mixture was incubated for 30 min at 37 °C in a humid box, and the cleavage of the substrate was correlated with aminopeptidase enzymatic activities by measuring the fluorescence of methylcoumarin at λex 341 nm and λem 441 nm with a plate reader (Infinite 200 PRO, Tecan). IC50 was calculated as reported above for CD13 activity.
Fig. 2 G4 recognizes soluble forms of CD13, with higher affinity and selectivity than bestatin, and the membrane forms expressed on the surface of HUVEC cells. […] The mixtures were incubated for 30 min at 37 °C, and the cleavage of each substrate was monitored by measuring the fluorescence of methylcoumarin (λex 341 nm; λem 441 nm) using an Infinite 200 PRO plate reader (Tecan). […] After incubation for 60 min at 4 °C, the cells were washed and analyzed by flow cytometry. […]

The target in assay [2] is T1, recombinant human CD13 (rCD13) (Homo sapiens, UniProt P15144).
T1 construct: consisting of the CD13 extracellular domain expressed in HEK-293 cells; His-tag; purchased Sino Biological 10051-H08H; host or cells: HEK-293 cells
Kind of assay: rCD13 enzyme inhibition assay, L-alanine 7-amido-4-methylcoumarin substrate. The assay is classed as biochemical. As to conditions: rCD13 0.2 µg/mL, 60 mM Tris–HCl pH 7.4, 0.1 mM L-alanine-7-amido-4-methylcoumarin, 30 min, 37 °C. How it is done:
(§1) Recombinant CD13 (rCD13) enzyme activity and inhibition assays were performed as described previously using L-alanine-p-nitroanilide or L-alanine 7-amido-4-methylcoumarin as substrates in 60 mM Tris–HCl, pH 7.4, or 60 mM potassium phosphate buffer, pH 7.4. Mixtures containing peptides at various concentrations, rCD13 (0.2 µg/mL), and L-alanine-p-nitroanilide substrate (0.5 mM) in 60 mM potassium phosphate buffer, pH 7.4 (total volume, 0.1 ml) were prepared and left to react for 30 min at 37 °C. The products were then analyzed using a plate reader (iMark Microplate Absorbance Reader; Bio-Rad). Alternatively, the assay was performed using 0.1 mM L-alanine 7-amido-4-methylcoumarin in 60 mM Tris–HCl, pH 7.4, as a substrate. Fluorescence intensity of methylcoumarin was measured on an Infinite 200 PRO plate reader (Tecan) using the following settings: excitation wavelength: 341 nm; emission wavelength: 441 nm; excitation bandwidth: 9; emission bandwidth: 20 nm; gain: 109 manual; number of flashes: 25; integration time: 20 µs; lag time: 0 µs; settle time: 0 ms.
(§2) The IC50 of each inhibitor was calculated by non-linear regression analysis of inhibition data using GraphPad Prism Software (GraphPad Software, Version 9.00, San Diego, CA). Steady-state enzyme kinetic analyses were performed using various concentrations of L-alanine-p-nitroanilide (0–1.5 mM) and VGCARRYCS peptide (0–900 nM). The initial velocities (Vo) were calculated from the slopes of the first 5 min of reaction. The enzyme inhibitory constant (Ki) was calculated using the competitive enzyme inhibition model in GraphPad Prism Software.
Fig. 2 G4 recognizes soluble forms of CD13, with higher affinity and selectivity than bestatin, and the membrane forms expressed on the surface of HUVEC cells. A Inhibitory effects of G4 and bestatin on the enzymatic activities of different aminopeptidases (rCD13, APA, and APB). Various amounts of G4 or bestatin were incubated with rCD13 (0.2 µg/mL in 60 mM Tris–HCl pH 7.4), APA (0.2 µg/mL in 60 mM Tris–HCl pH 7.4, 50 mM calcium chloride, 200 mM sodium chloride) or APB (0.2 µg/mL in 60 mM Tris–HCl pH 7.4, 100 mM potassium chloride) and the corresponding substrates at 0.1 mM (L-alanine-7-amido-4-methylcoumarin for rCD13, L-glutamic acid γ-(7-amido-4-methylcoumarin) for APA, and L-arginine-7-amido-4-methylcoumarin for APB). The mixtures were incubated for 30 min at 37 °C, and the cleavage of each substrate was monitored by measuring the fluorescence of methylcoumarin (λex 341 nm; λem 441 nm) using an Infinite 200 PRO plate reader (Tecan). Three independent experiments were performed for each enzyme. The results of one representative experiment for each enzyme are shown (mean ± SEM, duplicates). B Inhibitory effects of G4 and bestatin on soluble CD13 immunocaptured from human serum (sCD13) using microtiter plates coated with anti-CD13 mAb WM15. The microtiter plate was filled with a solution of mAb WM15 (5 μg/ml in DPBS) and incubated overnight at 4 °C. The plate was then washed with DPBS, blocked with 3% bovine serum albumin (BSA) in DPBS, and filled with human serum containing soluble CD13 (diluted 1:2 with DPBS containing 2% BSA). After washing with DPBS, mixtures of G4 or bestatin (0–100 µM in 60 mM Tris–HCl, pH 7.4) and L-alanine p-nitroanilide hydrochloride substrate (4.5 mM in 60 mM Tris–HCl, pH 7.4) were added and left to incubate at 37 °C for 2 h. Substrate cleavage by sCD13 dissociated from mAb WM15 was then monitored by measuring the absorbance at 405 nm in each well using a plate reader (Bio-Rad). The results of one experiment performed in triplicate are shown (mean ± SEM). C Effect of G4 on the binding of the anti-CD13 mAb WM15 to HUVEC. HUVEC were seeded at a density of 2 × 10^5 cells in 100 µL DPBS supplemented with 5% normal human serum (NHS) and incubated with a mixture of G4 peptide (0, 0.1, 1, and 10 µM) and mAb WM15 (0 or 0.13 nM) as indicated. […]

Assay [3] relates to HUVEC. Kind of assay: HUVEC cell adhesion assay on coated microtiter plates. Particulars: plates coated with 10 µg/mL, 4 × 10^5 HUVEC, 2.5 h, 37 °C, crystal violet, absorbance 540 nm. The assay is classed as cell-based, human. As for the experimental part:
The peptide VGCARRYCSGGSGGGSGK-biotin, with a biotin moiety linked to the ε-aminogroup of the Lys residue (ProteoGenix), was complexed with streptavidin (G4-streptavidin) or avidin (G4-avidin) by mixing it with a molar excess of streptavidin or avidin in DPBS (1:6 mol/mol), followed by incubation for 1 h at room temperature under mild stirring. To perform the cell adhesion assay, 96-well polyvinyl chloride microtiter plates were coated with G4-avidin or G4-streptavidin (10 µg/mL in DPBS, overnight, 4 °C). After blocking with 2% BSA in EBM-2 (45 min at room temperature), 4 × 10^5 HUVEC were seeded in Endothelial Cell Growth Basal Medium-2 (EBM-2, Cat. # 00190860, Lonza) and incubated for 2.5 h at 37 °C, 5% CO2. Unbound cells were removed by washing with EBM-2, and adherent cells were fixed with 3% paraformaldehyde and 2% sucrose in DPBS and stained with 0.5% crystal violet. The number of adherent cells was quantified by measuring the absorbance of the wells at 540 nm wavelength using a microplate reader.
Fig. 7 Adhesion of HUVEC cells to microtiter plates coated with G4-avidin or G4-streptavidin conjugates. Representative images of wells coated with 10 µg/mL of G4-avidin (A) or G4-streptavidin (B) complexes. Wells coated with avidin or streptavidin were used as negative controls. The absorbance of crystal violet-stained adherent cells is also shown. […]

Assay [4] deals with T1, recombinant human CD13 (rCD13). As to the kind of experiment: rCD13 enzyme inhibition assay, L-alanine-p-nitroanilide substrate. The assay is classed as biochemical. As to conditions: Fig. 4B and 4E, one experiment in duplicate. As for the experimental part: as §1, §2
A) VGCGRRYCSN and CSGIGSSGGC (control) peptides, at various concentrations, were mixed with rCD13 (0.2 µg/mL), L-alanine-p-nitroanilide substrate (0.5 mM), in 60 mM potassium phosphate buffer, pH 7.4. The mixtures were left to react for 30 min at 37° C; then the absorbance at 405 nm of each mixture was measured using an ELISA plate reader (Bio-Rad). The IC50 of each inhibitor was calculated by non-linear regression analysis of inhibition data using the GraphPad Prism Software (GraphPad Software, Version 9.00, San Diego, CA). The result of one experiment performed in duplicate is shown (mean ± SEM).

The subject of assay [5] is membrane CD13 expressed by HUVEC. As to the kind of experiment: Competitive binding of anti-CD13 mAb WM15 to HUVEC by flow cytometry. Also on record: species or system human. As to conditions: Fig. 4C and 4D. As for the experimental part: HUVEC were seeded in 96-well U-bottom polystyrene microtiter plates at a density of 2 × 10^5 cells in 100 µL DPBS supplemented with 5% normal human serum (NHS) and mixed with a mixture of peptide G4 ranging from 0 to 10 µM and mAb WM15 (0 or 0.13 nM). The chromogranin A429-439 peptide fragment (CgA429-439) was used instead of G4 as a control. After 1 h of incubation at 4 °C, the cells were washed and resuspended in 100 µL of DPBS containing 5% NHS and 1 µg/mL of FITC-labeled goat anti-mouse IgG secondary antibody. Cells were subsequently incubated for 1 h at 4 °C, washed, and analyzed by flow cytometry. All flow cytometry data were collected on a CytoFLEX S flow cytometer (Beckman Coulter) and analyzed using FlowJo software 10 (BD BioScience).
Fig. 2 G4 recognizes soluble forms of CD13, with higher affinity and selectivity than bestatin, and the membrane forms expressed on the surface of HUVEC cells. A Inhibitory effects of G4 and bestatin on the enzymatic activities of different aminopeptidases (rCD13, APA, and APB). Various amounts of G4 or bestatin were incubated with rCD13 (0.2 µg/mL in 60 mM Tris–HCl pH 7.4), APA (0.2 µg/mL in 60 mM Tris–HCl pH 7.4, 50 mM calcium chloride, 200 mM sodium chloride) or APB (0.2 µg/mL in 60 mM Tris–HCl pH 7.4, 100 mM potassium chloride) and the corresponding substrates at 0.1 mM (L-alanine-7-amido-4-methylcoumarin for rCD13, L-glutamic acid γ-(7-amido-4-methylcoumarin) for APA, and L-arginine-7-amido-4-methylcoumarin for APB). The mixtures were incubated for 30 min at 37 °C, and the cleavage of each substrate was monitored by measuring the fluorescence of methylcoumarin (λex 341 nm; λem 441 nm) using an Infinite 200 PRO plate reader (Tecan). Three independent experiments were performed for each enzyme. […] Substrate cleavage by sCD13 dissociated from mAb WM15 was then monitored by measuring the absorbance at 405 nm in each well using a plate reader (Bio-Rad). […] After incubation for 60 min at 4 °C, the cells were washed and analyzed by flow cytometry. Data are expressed as the percentage of counts vs. fluorescence intensity units […]

T1 sequence (P15144 33-967 limits assumed): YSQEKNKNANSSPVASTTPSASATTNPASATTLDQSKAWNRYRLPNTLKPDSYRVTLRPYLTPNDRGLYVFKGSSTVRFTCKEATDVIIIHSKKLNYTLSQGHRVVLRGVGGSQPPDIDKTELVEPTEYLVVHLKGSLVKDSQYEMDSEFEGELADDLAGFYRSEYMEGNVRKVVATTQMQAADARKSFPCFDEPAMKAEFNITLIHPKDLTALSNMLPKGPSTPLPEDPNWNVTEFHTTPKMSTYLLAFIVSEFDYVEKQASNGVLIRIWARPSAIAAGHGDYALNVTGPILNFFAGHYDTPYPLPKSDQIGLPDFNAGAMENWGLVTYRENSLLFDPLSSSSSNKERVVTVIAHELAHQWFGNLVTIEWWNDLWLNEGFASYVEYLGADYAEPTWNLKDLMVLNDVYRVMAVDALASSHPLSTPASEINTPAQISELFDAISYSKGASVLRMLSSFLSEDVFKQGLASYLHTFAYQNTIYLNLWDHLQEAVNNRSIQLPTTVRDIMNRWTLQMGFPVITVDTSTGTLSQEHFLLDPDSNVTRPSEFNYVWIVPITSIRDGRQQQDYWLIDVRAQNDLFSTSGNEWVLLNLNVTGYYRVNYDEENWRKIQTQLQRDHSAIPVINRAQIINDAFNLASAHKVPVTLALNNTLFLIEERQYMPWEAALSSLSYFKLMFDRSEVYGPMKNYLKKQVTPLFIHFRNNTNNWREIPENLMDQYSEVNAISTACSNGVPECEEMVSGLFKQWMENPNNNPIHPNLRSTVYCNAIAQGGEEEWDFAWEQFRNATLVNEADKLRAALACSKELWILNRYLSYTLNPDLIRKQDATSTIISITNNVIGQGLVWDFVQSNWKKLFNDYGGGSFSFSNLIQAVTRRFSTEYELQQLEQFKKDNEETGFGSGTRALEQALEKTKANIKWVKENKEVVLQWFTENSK

Consider `CC(C)C[C@H](NC(=O)[C@@H](O)[C@H](N)Cc1ccccc1)C(=O)O` [bestatin, Bestatin-hydrochloride], for which the “Inhibition of APB enzymatic activity (in words)” value in assay [1] was “inhibited both rCD13 and APB”. Further, in assay [2], the “Inhibition of rCD13 enzymatic activity (in words)” value was “inhibited both rCD13 and APB”.
Take “VGCARRYCSGGSGGGSGK-biotin [G4-avidin, …-biotin complexed with avidin]”: the “Endothelial cell adhesion to coated plates (in words)” value in assay [3] was “promoted endothelial cell adhesion”. In assay [4], the “Inhibition of rCD13 enzymatic activity (in words)” value is listed as “could not inhibit the enzymatic activity of recombinant soluble CD13”. Besides, the “Competition of mAb WM15 binding to HUVEC (in words)” value in assay [5] was “competed the binding of mAb WM15 to endothelial cells”.
